Reference: patent US20250206761A1, “HALOINDOLE MACROCYCLIC COMPOUNDS FOR THE TREATMENT OF CANCER” (Hoffmann-La Roche Inc., priority 2022, published 2025)
pIC50: −log10 of the molar value.

How the values were obtained:
[1] = tested on: phosphorylation of ERK, KRAS G12C in NCJ-H358 cells; experiment: pERK inhibition assay, KRAS G12C; type: cell-based, human; conditions: Homo sapiens, 4 hours
Summary of the method: (§1)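 ERK phosphorylation is measured after 4 h of compound exposure in attached cells, using a colorimetric immunoassay on fixed, permeabilized monolayers. IC50 is derived by 4-parameter sigmoidal fitting.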

SW620 (ATCC-CCL-227) = experiment: Cell viability assay, G12V (SW620); type: cell-based, human; conditions: Homo sapiens, SW-620; KRAS cell viability, SW620, 72 hrs, Cell Counting Kit-8
Summary of the method: (§2)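 IC50 derived by 4-parameter sigmoidal fit of CCK-8 signal (OD450−OD650, 2 h development) after 72 h compound exposure in 0.5% DMSO. Seeding density was 5,000 cells/well for NCI-H358 and 2,000 cells/well for AGS and SW620, plated overnight before dosing.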

[2] = tested on: NCI-H358 (ATCC-CRL5807) cells; experiment: Cell viability assay, G12C (NCI-H358); type: cell-based, human; conditions: Homo sapiens; KRAS cell viability, NCI-H358, 72 hrs, Cell Counting Kit-8
Summary of the method: as §2

[3] = tested on: phosphorylation of ERK, KRAS G12V in SW620; experiment: pERK inhibition assay, KRAS G12V; type: cell-based, human; conditions: Homo sapiens, SW-620, SW620, 4 hours
Summary of the method: as §1

[4] = tested on: AGS (ATCC-CRL-1739) cells; experiment: Cell viability assay, G12D (AGS); type: cell-based, human; conditions: Homo sapiens, KRAS cell viability, 72 hrs, Cell Counting Kit-8
Summary of the method: as §2

[5] = tested on: phosphorylation of ERK, KRAS G12D in AGS cells; experiment: pERK inhibition assay, KRAS G12D; type: cell-based, human; conditions: Homo sapiens, 4 hours
Method: This assay is to measure the ability of test compounds in inhibiting the phosphorylation of ERK, the downstream signaling of KRAS G12C in NCJ-H358 cells, KRAS G12D in AGS cells, and KRAS G12V in SW620. NCJ-H358 (ATCC-CRL5807) cells, AGS (ATCC-CRL-1739) cells, SW620 (ATCC-CCL-227) cells were all grown and maintained using RPMI-1640 medium (Thermo Fisher Scientific) with 10% fetal bovine serum and 1% penicillin/streptomycin. On the day prior to compound addition, cells were plated in tissue culture-treated 96 well plates (Corning-3699) at a density of 30,000 cell/well, 20,000 cell/well, 30,000 cell/well for NCJ-H358, AGS and SW620 respectively, and allowed for attachment overnight. Diluted compounds were then added in a final concentration of 0.5% DMSO. After 4 hours of incubation, the medium was removed, 100 μL of 4% formaldehyde was added, and the assay plates were incubated at room temperature for 20 minutes. The plates were then washed once with phosphate buffered saline (PBS), and permeabilized with 100 μL of chilled methanol for 10 minutes. Non-specific antibody binding to the plates was blocked using 50 μL 1×BSA blocking buffer (Thermo-37520, 10-fold dilution by Phosphate-Buffered Saline Tween (PBST) for at least 1 hour at room temperature.
The amount of phosphor-ERK was determined using an antibody specific for phosphorylated form of ERK. Primary antibody (pERK, CST-4370, Cell Signaling Technology) was diluted 1:300 in blocking buffer, with 50 μL aliquoted to each well, and incubated overnight at 4′° C. Cells was washed five times for 5 minutes with PBST. Secondary antibody ([…] anti-rabbit IgG, CST-7074, Cell Signaling Technology) was diluted 1:1000 in blocking buffer, and 50 μL was added to each well and incubated 1-2 hrs at room temperature. Cells was washed 5 times for 5 minutes with PBST, 100 μL TMB ELISA substrate (abcam-ab171523) were added and gently shake for 20 minutes. 50 μL stop solution (abcam-ab171529) were added, and then read the signal (OD450) by EnVision.
IC50 was determined by fitting a 4-parameter sigmoidal concentration response model.

[6] = target: KRAS G12V binding to BRAF (Homo sapiens (Human), UniProt P01116+P62937, G12V); experiment: KRAS-BRAF with CYPA (500 nM) interaction assay (TR-FRET), G12V; type: biochemical
KRAS G12V binding to BRAF, sequence (P01116-2 other isoform, or with tags, fused parts or gaps G12V): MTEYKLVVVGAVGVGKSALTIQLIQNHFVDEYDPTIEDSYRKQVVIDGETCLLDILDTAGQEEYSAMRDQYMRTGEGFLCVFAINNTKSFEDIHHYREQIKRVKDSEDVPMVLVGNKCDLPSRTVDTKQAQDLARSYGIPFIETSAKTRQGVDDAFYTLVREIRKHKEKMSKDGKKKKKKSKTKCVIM
KRAS G12V binding to BRAF, sequence (P62937 whole entry): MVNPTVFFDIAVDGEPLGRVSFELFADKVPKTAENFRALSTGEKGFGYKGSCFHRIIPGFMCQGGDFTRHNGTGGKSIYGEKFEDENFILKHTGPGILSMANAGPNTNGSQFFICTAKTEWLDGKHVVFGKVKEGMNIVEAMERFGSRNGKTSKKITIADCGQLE
Summary of the method: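 A TR-FRET assay measured how compound, in the presence of CYPA, disrupts binding of GMPPNP-loaded 6His-KRAS G12V to BRAF. The buffer contained 25 mM HEPES PH=7.4, 0.002% Tween20, 0.1% BSA, 100 mM NaCl, 5 mM MgCl2 and 10 μM GMPPNP. Compounds ran as a 16-point 3-fold dilution series from 10 μM for 3 hours.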

KRAS G12C-BRAF complex = KRAS G12C-BRAF complex (Homo sapiens (Human), UniProt P01116+P62937, G12C); experiment: KRAS-BRAF with CYPA (500 nM) interaction assay (TR-FRET), G12C; type: biochemical
KRAS G12C-BRAF complex, sequence (P01116-2 other isoform, or with tags, fused parts or gaps G12C): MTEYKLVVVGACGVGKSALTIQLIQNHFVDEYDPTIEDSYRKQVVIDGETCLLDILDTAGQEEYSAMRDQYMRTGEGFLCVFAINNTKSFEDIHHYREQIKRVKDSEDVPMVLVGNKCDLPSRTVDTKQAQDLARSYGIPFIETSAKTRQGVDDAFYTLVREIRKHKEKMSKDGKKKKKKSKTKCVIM
KRAS G12C-BRAF complex, sequence (P62937 whole entry): as the sequence (P62937 whole entry) above

[7] = target: KRAS G12D binding to BRAF (Homo sapiens (Human), UniProt P01116+P62937, G12D); experiment: KRAS-BRAF with CYPA (500 nM) interaction assay (TR-FRET), G12D; type: biochemical
KRAS G12D binding to BRAF, sequence (P01116-2 other isoform, or with tags, fused parts or gaps G12D): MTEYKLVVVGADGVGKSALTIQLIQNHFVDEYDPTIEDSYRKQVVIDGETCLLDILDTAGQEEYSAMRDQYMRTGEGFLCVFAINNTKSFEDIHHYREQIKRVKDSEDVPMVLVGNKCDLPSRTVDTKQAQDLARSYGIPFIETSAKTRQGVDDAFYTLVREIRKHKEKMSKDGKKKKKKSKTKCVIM
KRAS G12D binding to BRAF, sequence (P62937 whole entry): as the sequence (P62937 whole entry) above

Structure (SMILES)	pIC50 [2]	pIC50 [1]	pIC50 (SW620 (ATCC-CCL-227))	pIC50 [3]	pIC50 [4]	pIC50 [5]	pIC50 [6]	pIC50 (KRAS G12C-BRAF complex)	pIC50 [7]
CO[C@@H](C)c1ncc(N2CCN(C)CC2)cc1-c1c2c3cc(c(F)cc3n1CC(F)(F)F)-c1csc(n1)C[C@H](NC(=O)[C@H](C(C)C)N(C)C(=O)[C@H]1CCN(C(=O)[C@H](F)Cl)C1)C(=O)N1CCC[C@H](N1)C(=O)OCC(C)(C)C2 (atropisomer, axis not shown; (M)) [Example 2, (3S)-1-[(2R)-2-chloro-2-fluoro-acetyl]-N-[(1S)-1-[[(7S,13S)-24-fluoro-(20M)-20-[2-[(1S)-1-methoxyethyl]-5-(4-methylpiperazin-1-yl)-3-pyridyl]-17,17-dimethyl-8,14-dioxo-21-(2,2,2-trifluoroethyl)-15-oxa-4-thia-9,21,27,28-tetrazapentacyclo[17.5.2.1^2,5.1^9,13.0^22,26]octacosa-1(25),2,5(28),19,22(26),23-hexaen-7-yl]carbamoyl]-2-methyl-propyl]-N-methyl-pyrrolidine-3-carboxamide]	8.70	8.70	6.76	7.70	6.09	7.42	5.73	7.05	5.40
CO[C@@H](C)c1ncc(N2CCN(CC(F)(F)F)CC2)cc1-c1c2c3cc(c(F)cc3n1CC(F)(F)F)-c1csc(n1)C[C@H](NC(=O)[C@H](C(C)C)N(C)C(=O)[C@H]1CCN(C(=O)[C@H](F)Cl)C1)C(=O)N1CCC[C@H](N1)C(=O)OCC(C)(C)C2 (atropisomer, axis not shown; (M)) [Example 26, (3S)-1-[(2R)-2-chloro-2-fluoro-acetyl]-N-[(1S)-1-[[(7S,13S)-24-fluoro-(20M)-20-[2-[(1S)-1-methoxyethyl]-5-[4-(2,2,2-trifluoroethyl)piperazin-1-yl]-3-pyridyl]-17,17-dimethyl-8,14-dioxo-21-(2,2,2-trifluoroethyl)-15-oxa-4-thia-9,21,27,28-tetrazapentacyclo[17.5.2.1^2,5.1^9,13.0^22,26]octacosa-1(25),2,5(28),19,22(26),23-hexaen-7-yl]carbamoyl]-2-methyl-propyl]-N-methyl-pyrrolidine-3-carboxamide]	9.00	8.15	7.47	7.85	6.59	7.82	6.02	7.34	< 5.00
CO[C@@H](C)c1ncc(N2CCN(C)CC2)cc1-c1c2c3c(F)c(ccc3n1CC(F)(F)F)-c1cc(O)cc(c1)C[C@H](NC(=O)[C@H](C(C)C)N(C)C(=O)[C@H]1CCN(C(=O)[C@H](F)Cl)C1)C(=O)N1CCC[C@H](N1)C(=O)OCC(C)(C)C2 (atropisomer, axis not shown; (M)) [Example 27, (3S)-1-[(2R)-2-chloro-2-fluoro-acetyl]-N-[(1S)-1-[[(8S,14S)-26-fluoro-4-hydroxy-(21M)-21-[2-[(1S)-1-methoxyethyl]-5-(4-methylpiperazin-1-yl)-3-pyridyl]-18,18-dimethyl-9,15-dioxo-22-(2,2,2-trifluoroethyl)-16-oxa-10,22,28-triazapentacyclo[18.5.2.1^2,6.1^10,14.0^23,27]nonacosa-1(26),2,4,6(29),20,23(27),24-heptaen-8-yl]carbamoyl]-2-methyl-propyl]-N-methyl-pyrrolidine-3-carboxamide]	–	8.52	7.51	8.00	7.43	7.96	8.52	8.70	8.15

More lines, main results first:

pIC50 [2]	Structure (SMILES)	pIC50 [1]	pIC50 (SW620 (ATCC-CCL-227))	pIC50 [3]	pIC50 [4]	pIC50 [5]	pIC50 [6]	pIC50 (KRAS G12C-BRAF complex)	pIC50 [7]
8.30	CO[C@@H](C)c1ncc(N2CCN(C)CC2)cc1-c1c2c3c(F)c(ccc3n1CC(F)(F)F)-c1csc(n1)C[C@H](NC(=O)[C@H](C(C)C)N(C)C(=O)[C@H]1CCN(C(=O)[C@H](F)Cl)C1)C(=O)N1CCC[C@H](N1)C(=O)OCC(C)(C)C2 (atropisomer, axis not shown; (M)) [Example 1, (3S)-1-[(2R)-2-chloro-2-fluoro-acetyl]-N-[(1S)-1-[[(7S,13S)-25-fluoro-(20M)-20-[2-[(1S)-1-methoxyethyl]-5-(4-methylpiperazin-1-yl)-3-pyridyl]-17,17-dimethyl-8,14-dioxo-21-(2,2,2-trifluoroethyl)-15-oxa-4-thia-9,21,27,28-tetrazapentacyclo[17.5.2.1^2,5.1^9,13.0^22,26]octacosa-1(25),2,5(28),19,22(26),23-hexaen-7-yl]carbamoyl]-2-methyl-propyl]-N-methyl-pyrrolidine-3-carboxamide]	8.15	7.04	7.26	6.41	6.86	–	–	–
> 9.00	CCn1c(-c2cc(N3CCN(C)CC3)cnc2[C@H](C)OC)c2c3cc(c(F)cc31)-c1csc(n1)C[C@H](NC(=O)[C@H](C(C)C)N1CC[C@@]3(CCN(C(=O)[C@H](F)Cl)C3)C1=O)C(=O)N1CCC[C@H](N1)C(=O)OCC(C)(C)C2 (atropisomer, axis not shown; (M)) [Example 30, (2S)-2-[(5R)-7-[(2R)-2-chloro-2-fluoro-acetyl]-1-oxo-2,7-diazaspiro[4.4]nonan-2-yl]-N-[(7S,13S)-21-ethyl-24-fluoro-(20M)-20-[2-[(1S)-1-methoxyethyl]-5-(4-methylpiperazin-1-yl)-3-pyridyl]-17,17-dimethyl-8,14-dioxo-15-oxa-4-thia-9,21,27,28-tetrazapentacyclo[17.5.2.1^2,5.1^9,13.0^22,26]octacosa-1(25),2,5(28),19,22(26),23-hexaen-7-yl]-3-methyl-butanamide]	8.70	5.98	7.00	6.36	7.68	< 5.00	7.42	< 5.00
7.35	CCn1c(-c2cccnc2COC)c2c3cc(ccc31)-c1cc(O)cc(c1)C[C@H](NC(=O)[C@H](C(C)C)N(C)C(=O)C1CN(C(=O)[C@H](F)Cl)C1)C(=O)N1CCC[C@H](N1)C(=O)OCC(C)(C)C2 [RM461-A, reference compound]	7.31	–	–	5.10	< 5.00	5.22	7.57	< 5.00
